# Test results: ChEMBL document CHEMBL1201862, “PubChem BioAssay data set” (2004)
#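 The compound was tested at five concentrations on cells cultured in 96-well plates, with a 48-hour exposure period. Here, GI50 denotes the concentration required for 50% inhibition of growth.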 Calls of active or inactive are those of the source. Cut-off read from the data, not from the text of the source: active = GI50 up to about 1.1 µM and inactive = higher.
# Assays:
# Experiment in all cases: NCI tumour cell line growth inhibition, 48 h
# 786-0 = system: 786-0
# CCRF-CEM = system: CCRF-CEM
# DU-145 = system: DU-145
# HT-29 = system: HT-29
# Hs-578T = system: Hs-578T
# KM12 = system: KM12
# MDA-MB-231 = system: MDA-MB-231
# MDA-MB-435 = system: MDA-MB-435
# MDA-N = system: MDA-N
# NCI-H226 = system: NCI-H226
# NCI-H23 = system: NCI-H23
# OVCAR-3 = system: OVCAR-3
# OVCAR-4 = system: OVCAR-4
# OVCAR-8 = system: OVCAR-8
# SF-295 = system: SF-295
# SK-MEL-5 = system: SK-MEL-5
# SW-620 = system: SW-620
# TK-10 = system: TK-10
# UACC-257 = system: UACC-257
# UACC-62 = system: UACC-62
SMILES,GI50 (786-0),GI50 (CCRF-CEM),GI50 (DU-145),GI50 (HT-29),GI50 (Hs-578T),GI50 (KM12),GI50 (MDA-MB-231),GI50 (MDA-MB-435),GI50 (MDA-N),GI50 (NCI-H226),GI50 (NCI-H23),GI50 (OVCAR-3),GI50 (OVCAR-4),GI50 (OVCAR-8),GI50 (SF-295),GI50 (SK-MEL-5),GI50 (SW-620),GI50 (TK-10),GI50 (UACC-257),GI50 (UACC-62)
NC(=O)c1ncn2c(=O)n(CCCl)nnc12 [MITOZOLOMIDE],28.8 µM (inactive),32.9 µM (inactive),123 µM (inactive),156 µM (inactive),208 µM (inactive),180 µM (inactive),220 µM (inactive),170 µM (inactive),137 µM (inactive),158 µM (inactive),149 µM (inactive),205 µM (inactive),187 µM (inactive),101 µM (inactive),37.7 µM (inactive),156 µM (inactive),135 µM (inactive),229 µM (inactive),159 µM (inactive),24.7 µM (inactive)
C#CCCCOc1ncccn1,> 100 µM (inactive),> 10 µM (inactive),> 100 µM (inactive),> 100 µM (inactive),> 100 µM (inactive),> 100 µM (inactive),> 100 µM (inactive),> 100 µM (inactive),> 100 µM (inactive),> 100 µM (inactive),> 100 µM (inactive),> 100 µM (inactive),> 100 µM (inactive),> 100 µM (inactive),> 100 µM (inactive),> 100 µM (inactive),> 100 µM (inactive),> 100 µM (inactive),> 100 µM (inactive),> 100 µM (inactive)
Cc1ccc(NC(=O)/C(Cc2cc(=O)oc3cc(O)ccc23)=N\NC(=O)C[N+](C)(C)C)cc1C,> 100 µM (inactive),> 100 µM (inactive),> 100 µM (inactive),> 100 µM (inactive),> 100 µM (inactive),> 100 µM (inactive),> 100 µM (inactive),> 100 µM (inactive),> 100 µM (inactive),> 100 µM (inactive),> 100 µM (inactive),> 100 µM (inactive),> 100 µM (inactive),> 100 µM (inactive),> 100 µM (inactive),> 100 µM (inactive),> 100 µM (inactive),> 100 µM (inactive),> 100 µM (inactive),> 100 µM (inactive)
COc1cc(C2c3cc4c(cc3OC(NNS(=O)(=O)c3ccc(C)cc3)C2C)OCO4)cc(OC)c1OC (stereo not given),7.76 µM (inactive),1.01 µM (active),3.83 µM (inactive),1.34 µM (inactive),1.26 µM (inactive),1.26 µM (inactive),4.24 µM (inactive),0.294 µM (active),0.289 µM (active),3.14 µM (inactive),4.8 µM (inactive),1.26 µM (inactive),7.59 µM (inactive),8.91 µM (inactive),0.989 µM (active),0.883 µM (active),1.01 µM (active),6.7 µM (inactive),3.21 µM (inactive),1.36 µM (inactive)
C[C@]12CCC(=O)C=C1C[C@@H](O)[C@@H]1[C@@H]2CC[C@@]2(C)[C@H]1CC[C@]2(C)O,> 100 µM (inactive),> 100 µM (inactive),> 100 µM (inactive),> 100 µM (inactive),> 100 µM (inactive),> 100 µM (inactive),> 100 µM (inactive),> 100 µM (inactive),> 100 µM (inactive),> 100 µM (inactive),> 100 µM (inactive),> 100 µM (inactive),> 100 µM (inactive),> 100 µM (inactive),> 100 µM (inactive),> 100 µM (inactive),> 100 µM (inactive),> 100 µM (inactive),> 100 µM (inactive),> 100 µM (inactive)
Cc1ccc(-c2c(-c3ccccc3)[nH]c(C)c2C(=O)ONC(=O)c2ccccc2)cc1,3.03 µM (inactive),2.97 µM (inactive),1.82 µM (inactive),7.83 µM (inactive),2.01 µM (inactive),9.68 µM (inactive),3.4 µM (inactive),2.19 µM (inactive),2.35 µM (inactive),7.24 µM (inactive),5.53 µM (inactive),4.49 µM (inactive),2.72 µM (inactive),4.62 µM (inactive),1.93 µM (inactive),6.41 µM (inactive),8.51 µM (inactive),5.52 µM (inactive),13.7 µM (inactive),10.2 µM (inactive)
CN/N=C(/CCN1CCCC1)CC(c1ccccc1)c1c(O)c2ccccc2oc1=O (stereo not given),> 100 µM (inactive),> 71.9 µM (inactive),> 100 µM (inactive),> 100 µM (inactive),> 100 µM (inactive),> 100 µM (inactive),> 100 µM (inactive),> 100 µM (inactive),> 100 µM (inactive),> 65.6 µM (inactive),> 96.4 µM (inactive),> 100 µM (inactive),> 100 µM (inactive),> 100 µM (inactive),> 100 µM (inactive),> 75.5 µM (inactive),> 100 µM (inactive),> 100 µM (inactive),> 100 µM (inactive),> 100 µM (inactive)
C[Si](C)(c1ccc(C(=O)O)cc1)c1ccc(C(=O)O)cc1,> 100 µM (inactive),> 100 µM (inactive),> 100 µM (inactive),> 100 µM (inactive),> 100 µM (inactive),> 100 µM (inactive),> 100 µM (inactive),> 100 µM (inactive),> 100 µM (inactive),> 100 µM (inactive),> 100 µM (inactive),> 100 µM (inactive),> 100 µM (inactive),> 100 µM (inactive),> 100 µM (inactive),> 100 µM (inactive),> 100 µM (inactive),> 100 µM (inactive),> 100 µM (inactive),> 100 µM (inactive)
COc1c(NC(C)=O)c2ccccc2c2ccccc12,> 100 µM (inactive),> 100 µM (inactive),> 100 µM (inactive),> 100 µM (inactive),> 100 µM (inactive),> 100 µM (inactive),> 100 µM (inactive),> 100 µM (inactive),> 100 µM (inactive),49.5 µM (inactive),> 100 µM (inactive),> 100 µM (inactive),> 100 µM (inactive),> 100 µM (inactive),> 100 µM (inactive),> 100 µM (inactive),> 100 µM (inactive),> 100 µM (inactive),> 100 µM (inactive),> 100 µM (inactive)
O=C(Cc1ccc(Cl)c(Cl)c1)NCCCN1CCN(CCCN2CCCCC2)CC1,16.4 µM (inactive),16 µM (inactive),40.5 µM (inactive),10.8 µM (inactive),14.1 µM (inactive),15.8 µM (inactive),12 µM (inactive),1.9 µM (inactive),2.45 µM (inactive),21.7 µM (inactive),19.8 µM (inactive),25.5 µM (inactive),37.8 µM (inactive),27.6 µM (inactive),19 µM (inactive),10.4 µM (inactive),19.9 µM (inactive),17.2 µM (inactive),5.26 µM (inactive),3.84 µM (inactive)
O=C1/C(=N\n2c(S)nnc2-c2ccncc2)c2cc(Cl)ccc2N1CN1CCCCC1,27.7 µM (inactive),6.97 µM (inactive),29.6 µM (inactive),31.2 µM (inactive),19.8 µM (inactive),38.3 µM (inactive),> 100 µM (inactive),32.2 µM (inactive),31.5 µM (inactive),> 100 µM (inactive),46.6 µM (inactive),73.8 µM (inactive),32.2 µM (inactive),31.8 µM (inactive),94 µM (inactive),48.6 µM (inactive),18.6 µM (inactive),30.3 µM (inactive),23.4 µM (inactive),34.4 µM (inactive)
C[C@H]1O[C@@H](O[C@H]2[C@@H](O)C[C@H](O[C@H]3[C@@H](O)C[C@H](O[C@H]4CC[C@@]5(C)[C@H](CC[C@@H]6[C@@H]5CC[C@]5(C)[C@@H](C7=CC(=O)OC7)[C@@H](O)C[C@]65O)C4)O[C@@H]3C)O[C@@H]2C)C[C@H](O)[C@@H]1O [GITOXIN],0.151 µM (active),0.109 µM (active),0.0822 µM (active),0.177 µM (active),0.562 µM (active),0.658 µM (active),1.2 µM (inactive),0.365 µM (active),0.266 µM (active),0.855 µM (active),0.0869 µM (active),0.13 µM (active),0.271 µM (active),0.226 µM (active),0.169 µM (active),0.118 µM (active),0.258 µM (active),0.254 µM (active),0.522 µM (active),0.418 µM (active)
C=CC(Br)(CBr)CCC(Br)C(C)C (stereo not given),1.58 µM (inactive),0.822 µM (active),8.55 µM (inactive),2.79 µM (inactive),2.64 µM (inactive),2.18 µM (inactive),4.27 µM (inactive),5.21 µM (inactive),2.07 µM (inactive),16.6 µM (inactive),6.82 µM (inactive),4.5 µM (inactive),4.9 µM (inactive),2.44 µM (inactive),4.26 µM (inactive),5.24 µM (inactive),2.2 µM (inactive),3.13 µM (inactive),8.18 µM (inactive),3.12 µM (inactive)
